“Also recorded” adds a separate entry of the source. Values belong to the molecule of their own block, whether it stands above or below them.
Columns and labels:
[1] = tested on: HaCaT keratinocytes; assay: Kinetics of melatonin metabolism in untreated keratinocytes (intracellular levels); type: in vitro ADME, human; details: not preincubated with melatonin, no UV; for intracellular level in untreated keratinocytes after 24 hrs: cultivation for 24 hrs
Protocol: (§1) Parallel control dishes were incubated with PBS without melatonin.
(§2) Aliquots ([…]) of samples from the cell suspension and cell-free experiments were separated on an LC-MS QP8000a (Shimadzu, Japan) equipped with diode array and single quadrupole mass-spectrometric detectors. The separation system consisted of a Restec Allure C18 reverse-phase column (150×4.6 mm; 5 μm particle size; and 60 A pore size) with mobile phase consisting of 25% acetonitrile and 0.1% acetic acid. Elution was carried out isocratically at flow rate of 0.75 ml/min and temperature of 40° C. The eluent was routed to the mass-spectrometric electrospray interface (ESI) set in positive mode and using nitrogen as the nebulizing gas. Mass-spectrometry parameters were as follows: nebulizer gas flow rate, 4.5 l/min; electrospray voltage, 4.5 kV; and curved desolvation line (CDL) heater temperature, 250° C. The selected ion monitoring (SIM) mode was used to detect ions with m/z=249 (monohydroxymelatonin); m/z=265 (dihydroxymelatonin and AFMK); m/z=237 (AMK); and m/z=233 (melatonin). System control and data acquisition were performed with the LC-MS workstation Class-8000 software (Shimadzu, Japan).

[2] = tested on: HaCaT keratinocytes; assay: Melatonin and metabolites in supernatants and cell lysates of UV-irradiated HaCaT keratinocytes (HPLC, LC-MS); type: in vitro ADME, human
Protocol: as §1
(§3) Internal standards for HPLC were dissolved in absolute ethanol. […] AFMK was produced as described previously (48).
(§4) Irradiation experiments were performed with a Biorad UV transluminator 2000 (Bio-RAD Laboratories, Hercules, Calif.), calibrated as described previously (37). Briefly, a scanning double monochromator spectroradiometer (Model OL 754, Optronic Laboratories, Orlando, Fla.) was used to scan emission of wavelengths from 250 to 800 nm at 1 nm increments. The spectroradiometer had been calibrated with an NIST traceable tungsten-halogen spectral irradiance standard (Model 75-10E, Optronic Laboratories, Orlando, Fla.) with a precision current source (Model 65, Optronic Laboratories, Orlando, Fla.). An additional calibration module (Model 752-150, Optronic Laboratories, Orlando, Fla.) measured both photometric gain and wavelength accuracy. Wavelength calibration and gain were established or verified before each experimental use. The UV source emission (shown in FIG. 1) consisted primarily of UVB light (wavelength 280-320 nm; 60%), with minor output in the UVA (320-400 nm) and UVC (120-280 nm) range (˜30% and ˜10%, respectively). Melatonin photoproducts generation was performed after irradiation at the UV doses of 25, 50, 75 or 100 mJ/cm^2, as indicated in the figures.
as §2

[3] = UVR irradiation of melatonin solution in a cell-free system (HPLC, LC-MS); type: physicochemical; details: melatonin in PBS, UV-doses of 25, 50 and 100 mJ/cm^2
Protocol: as §1, §3
as §4, with “Melatonin photoproducts generation was performed after irradiation at the UV doses of 25, 50, 75 or 100 mJ/cm^2, as indicated in the figures.” left out
Peak areas increased linearly with UV-doses (FIG. 2). […] Product identity was determined by comparison with known standards of melatonin metabolites. […]

[4] = tested on: HaCaT keratinocytes; details: human
[5] = tested on: HaCaT keratinocytes; assay: Mitochondrial membrane potential (ΔΨ) using JC-1, confocal microscopy; type: cell-based, human; details: for mitochondrial membrane potential, melatonin alone: melatonin 10−4 M, without UV-exposure
Protocol: Mitochondrial inner membrane potential (ΔΨ) in immortalized HaCaT keratinocytes was measured by using confocal microscopy with 5,5′,6,6′tetrachloro-1,1′,3,3′-tetraethylbenzimidazol-carbocyanine iodide (JC-1) (Molecular Probes, Carlsbad, Calif.) (66). JC-1 selectively enters mitochondria and aggregates when the membrane potential values exceed 80-100 mV, causing a shift in fluorescence from 530 nm (green) to 590 nm (red). For experiments, human HaCaT keratinocytes were seeded in Lab-Tek II 8-well chambered coverglass (Nalge Nunc, Inc., Naperville, Ill.) and grown until 90-100% of confluence. Culture media were removed and cells washed with PBS and then incubated for 30 or 120 min with melatonin at […]. Stock solution of melatonin was dissolved in DMEM and added to the culture media. After incubation, cells were washed twice with PBS and subjected to irradiation with UVB at the dose of 50 mJ/cm^2 or incubated with serum free medium containing 1 mM H2O2 for 1 h. After irradiation cells were incubated in DMEM containing 5% FBS and supplemented with JC-1 (2.5 μg/ml) for 30 min at 37° C. […] Images were acquired from three to six randomly chosen fields for each experimental condition showing nuclear cross-section. Green and red channels were merged and ratio of red to green channel was shown in blue.
Bands of immunoblots were evaluated by measurement of density with Scion Image analysis software (NIH). Density values from two or three experiments were taken for calculation of mean values and standard deviation. For statistical analysis of mitochondrial membrane potential, images showing nuclear cross-section were acquired from three to six randomly chosen fields -or each experimental condition. Ration of red/green emission was calculated using ImageJ software (NIH, Bethesda, […].) and differences were analysed with Student's t-test and were considered significant when p-value was <0.05.

[6] = tested on: HaCaT keratinocytes; details: [3H]-labeled melatonin tracer only; cited from earlier work
[7] = tested on: HaCaT keratinocytes; assay: Morphology analysis of keratinocytes after UV irradiation; type: cell-based, human; details: melatonin 10^−3 M, 50 mJ/cm^2, 24 hours after irradiation
Protocol: Cell media from overnight incubation was removed and replaced with fresh media containing melatonin at the concentration of 10^−3 M, the maximum effective concentration identified in previous studies (45, 46). […] Irradiation of the Petri dishes was performed with UVR from below, and after irradiation PBS was replaced by fresh culture media for 24 or 48 hrs. Paraely, cells were incubated with or without melatonin, but not subjected to irradiation to exclude effects of melatonin alone.
Digital pictures from six to ten randomly chosen fields per Petri dish for each experimental condition were acquired at different time points after UV exposure (0, 24 and 48 hrs) with a NIKON Eclipse TE300 microscope (Melville, N.Y.). At 24 and 48 hrs after UV exposure, pictures of detached cells were first taken, then detached cells were removed and another set of pictures was acquired to assess the degree of confluency of cells which were still attached to the bottom of the culture dish. Pictures were recorded and analyzed with MetaVue software. Then, keratinocytes were harvested from Petri dishes by trypsinization, washed three times with ice-cold PBS and frozen in −80° C. until further processing.

- intracellular level in untreated keratinocytes, initial (basal) [1]: 7.8 pmoles/1000 cells
- intracellular level in untreated keratinocytes after 24 hrs [1]: 20.4 pmoles/1000 cells
SMILES: COc1ccc2[nH]c(O)c(CCNC(C)=O)c2c1 [2-hydroxymelatonin]

- intracellular detection ([2]; basal conditions and after UVR exposure): not detected intracellularly
SMILES: COc1ccc2[nH]cc(CCNC(C)=O)c2c1O [4-hydroxymelatonin]

- intracellular level in untreated keratinocytes, initial (basal) [1]: 53.4 pmoles/1000 cells
- intracellular level in untreated keratinocytes after 24 hrs [1]: 16.8 pmoles/1000 cells
SMILES: COc1cc2c(CCNC(C)=O)c[nH]c2cc1O [6-hydroxymelatonin]

- relative HPLC peak size of photoproduct [3]: largest peak
- AFMK level in supernatants, irradiated vs nonirradiated ([2]; cells not preincubated with melatonin): ~13 fold
- AFMK level in supernatants, irradiated vs non-irradiated ([2]; melatonin preincubation, 50 mJ/cm^2): ~100 fold
- AFMK level in cell lysates, irradiated vs nonirradiated ([2]; melatonin preincubation, UVR): approximately 3.5 fold
- AFMK level in native keratinocytes (lysates), UV-stimulated increase ([2]; not preincubated with melatonin): 1.9 fold
- intracellular level in untreated keratinocytes, initial (basal) [1]: 17.4 pmoles/1000 cells
- intracellular level in untreated keratinocytes after 24 hrs [1]: 33.6 pmoles/1000 cells
SMILES: COc1ccc(NC=O)c(C(=O)CCNC(C)=O)c1 [AFMK, N^1-acetyl-N^2-formyl-5-methoxykynuramine]
- time of highest level in supernatants post UV exposure ([2]; HaCaT preincubated with 10−3 M melatonin, UVR): 40 min

- detection of AMK after UVR exposure [2]: could not be detected
SMILES: COc1ccc(N)c(C(=O)CCNC(C)=O)c1 [AMK, N^1-acetyl-5-methoxykynuramine]

- intracellular melatonin concentration [4]: approximately 10−6 M
- uptake of melatonin into the cell, ratio of intra- to extracellular melatonin (% of applied levels) [4]: 0.125%
- photoproducts generated by UV irradiation of melatonin solution [3]: generated four compounds
- melatonin level in supernatants after UV exposure, % of nonirradiated melatonin solution ([2]; human): 99.7%
- intracellular level in untreated keratinocytes, initial (basal) [1]: 146.0 pmoles/1000 cells
- intracellular level in untreated keratinocytes after 24 hrs [1]: 65.0 pmoles/1000 cells
SMILES: COc1ccc2[nH]cc(CCNC(C)=O)c2c1 [melatonin]
- UV-induced mitochondrial membrane potential reduction, red/green fluorescence ratio ([5]; melatonin 10^−3 to 10^−6 M for 30 or 120 min, UVB 50 mJ/cm^2): attenuated by melatonin in a dose dependent manner; also recorded: prevented membrane potential reduction
- H2O2-induced reduction of mitochondrial membrane potential ([5]; melatonin 10^−4 M, H2O2 1 mM, 60 minutes): significantly counteracted
- mitochondrial membrane potential, melatonin alone [5]: no change of mitochondrial membrane potential
- mitochondrial membrane potential, melatonin alone ([5]; listed as Melatonin): did not influence mitochondrial membrane potential
- mitochondrial membrane potential after UVB (JC-1 images) ([5]; preincubation with melatonin 10^−4 M, UVB 50 mJ/cm^2): preserved mitochondrial membrane potential
- melatonin uptake in HaCaT keratinocytes (Nickel and Wohlrab) [6]: 0.097%
- keratinocyte confluency and empty spaces after UV irradiation [7]: confluency was higher compared to non-treated control and no empty spaces were seen

Reference: patent US20070218023A1, “Uses of melatonin in skin” (priority 2006, published 2007)
